Test system: healthy subjects
Experiment: SAD phase blood pressure
Assay type: in vivo, human
Details: for Mean SBP, LSMs difference from placebo: over 48 h

With `Fc1ccccc1Cc1nc(-c2nc(C(F)(F)F)n[nH]2)cn2ccnc12` [zagociguat, 8‐(2‐fluorobenzyl)‐6‐(3‐(trifluoromethyl)‐1H‐1,2,4‐triazol‐5‐yl)imidazo[1,2‐a]pyrazine] the “Mean SBP, LSMs difference from placebo” value (SAD 3 mg, 95% CI: −9.8, −0.1, p = 0.047) was −4.9 mmHg, the “Mean SBP, LSMs difference from placebo” value (SAD 50 mg, 95% CI: −10.0, −0.5, p = 0.032) was −5.2 mmHg and the DBP change (SAD all dose groups) was “no decreases”. The SBP change (SAD other dose groups (1, 10, 20, 30 mg)) was “No decreases”.
